Measured values published in patent US20150031739A1, “PANOBINOSTAT FOR USE IN THE TREATMENT OF HIV-1” (Aarhus Universitet, priority 2012, published 2015).

Key:
[1] = test system: HIV-1 expression in ACH2 cells; assay: HIV-1 activation from ACH2 cells (p24 gag ELISA); type: cell-based; conditions: 48 hours
Experimental: (§1) HIV-1 activation from ACH2 cells: ACH2 cells (obtained through the NIH AIDS Reagent Program) are seeded at 1*10^5/well in a 96-well format in 100 uL RPMI media supplemented with 10% heat inactivated Foetal Bovine Serum and 1% penicillin/streptomycin. HDACi and PMA as positive control is added at desired concentrations in 100 uL. Identical DMSO levels is used for untreated control. All stimulations are performed in triplicate. 48 hours later supernatant is harvested and left for inactivation in 1% Empegen for 1 hour. Samples are diluted 1/500 and levels of HIV-1 p24 gag is determined by ELISA as described by the manufacturer (Aalto Bioreagents, Dublin, Ireland).

[2] = test system: HIV-1 expression in U1 cells; assay: HIV-1 activation from U1 cells (p24 gag ELISA); type: cell-based; conditions: 48 hours
Experimental: as §1, with “U1” for “ACH2”, “2*10^5/well” for “1*10^5/well”, “Levels” for “Samples are diluted 1/500 and levels”, “gag levels” for “gag”

latent viral reservoir = conditions: clinical study; effect could not be sustained in further studies; cited from earlier work
CCR5 = conditions: monocytes; cited from earlier work
CXCR4 = conditions: CD4+ T-cells; cited from earlier work
histone H3 acetylation = assay: Histone H3 acetylation in PBMC's of patients during panobinostat administration; type: in vivo, human
Experimental: One million freshly isolated PBMC's harvested from CPT vacutainers (BD Bioscience, UK) were washed in ice-cold PBS with 1% FBS. Subsequently cells were fixed in 200 uL 1% paraformaldehyde for 15 min on ice and afterwards washed in PBS. […] Following a wash in FACS buffer (PBS/2% FBS), cells were blocked in PBS with 10% FBS for 20 min at RT. For each patient one sample was incubated for 1 hr at RT with either 5 uL primary anti-acetyl histone H3 antibody (Millipore, DK) or 5μ isotype control (final antibody concentration: 10 μg/m). Subsequently, cells were washed in FACS buffer and incubated with 5 uL secondary (Alexa-Flour 488 donkey anti-rabbit IgG from Life Technologies, DK) for 1 hr in the dark at RT (final antibody concentration: 6 μg/m). Lastly, cells were washed in FACS buffer, resuspended in PBS and analyzed on a FACS Canto II.

Cytotoxicity of LBH589 = type: cell-based; conditions: up to 30 nM
CD4+ T cells = assay: CD4+ T cell counts in blood during panobinostat treatment; type: in vivo, human; conditions: intermittent dosing over 51 days, 20 mg oral TIW every other week, HIV-1 patients on HAART
Experimental: Measurement of CD4+ T cell counts was performed by flow cytometry as part of routine diagnostics evaluation of HIV-1 patients.

[3] = test system: latently infected cell lines (U1 and ACH2); assay: HIV-1 expression from latently infected cell lines, statements for both lines; type: cell-based
Experimental: as §1, with “U1” for “ACH2”, “2*10^5/well” for “1*10^5/well”, “Levels” for “Samples are diluted 1/500 and levels”, “gag levels” for “gag”
as §1

[4] = test system: CD69 expression in CD4+ T-cells; assay: Activation of primary T lymphocytes (CD69 expression, flow cytometry); type: cell-based, human; conditions: 16 hours
Experimental: Expression of the early activation marker CD69 was assessed by flow cytometry in 8 separate experiments with data from one representative experiment shown in figure.
Activation of primary T lymphocytes: PBMC's are purified using Ficoll Paque gradient centrifugation from fresh blood obtained from healthy donors. 5*10^5 cells are stimulated by different concentrations of HDACi in final volume of 500 uL RPMI media supplemented with 10% heat inactivated Foetal Bovine Serum and 1% penicillin/streptomycin. After 16 hours cells are harvested and washed once in PBS. Cells are stained with Live-dead near IR at a final concentration of 2 uM (Invitrogen, Denmark) for 30 min on ice. Cells are washed twice in PBS. Five uL Fc Block (Sigma, Denmark) at 10 mg/mL is added and cells are incubated 10 min on ice. Cells are subsequently stained with 5 uL CD4 PerCPCy5.5, 5 uL CD27 PE-Cy7, 7 uL CD45RA FITC, 20 uL CCR7 PE all (BD, USA) and 10 uL CD69 APC (BioLegend, USA) for 30 min on ice. Lastly, cells are washed once in PBS and resuspended in FACS flow buffer and stored on ice until analysis by flow cytometry.

[5] = test system: cell-associated unspliced HIV RNA; assay: Cell associated unspliced Gag HIV RNA in CD4+ T cells of treated patients; type: in vivo, HIV-1
Experimental: RNA purified from 1 million CD4+ T cells was treated with DNAse and split in 4 portions. Preparation of cDNA was performed by Superscript III Reverse Transcriptase as described by the manufacturer using both Oligo dT and random hexamer priming (Life Technologies, DK). Each cDNA sample was assayed in duplicate in a semi-nested real-time PCR quantification yielding eight replicates for each patient sample.
First round amplification was carried out with primers 5′-[…]-3′ (SEQ ID NO: 1) and 5′-[…]-3′ (SEQ ID NO: 2) with AmpliTaq gold mastermix (Life Technologies, DK) for a limited 15 cycles and input of 5 uL cDNA.
PCR conditions were as follows: A denaturation step at 95° C. for 10 minutes followed by 15 cycles of 20 seconds at 94° C., 40 seconds at 55° C. and 40 seconds at 72° C. Second round real-time PCR was performed using SYBR green mastermix (Life Technologies, DK) and primers 5′-[…]-3′ (SEQ ID NO: 3) and 5′-[…]-3′ (SEQ ID NO: 4) on a Bio-Rad CFX96™ Real-time PCR Platform. PCR conditions were as follows: A denaturation step at 95° C. for 10 minutes followed by 45 cycles of 20 seconds at 94° C., 40 seconds at 55° C., 40 seconds at 72° C. Subsequently, a dissociation curve was obtained by heating from 65° C. to 95° C. with a 0.5° C. increment for 5 seconds. A serial diluted standard allow for relative quantification of HIV Gag RNA levels.

[6] = test system: HIV proviral DNA in CD4+ T cells; assay: Total HIV proviral DNA in purified CD4+ T cells of treated patients; type: in vivo, HIV-1
Experimental: DNA was isolated from 1×10^6 CD4+ T cells using AllPrep DNA/RNA Mini kit according to the manufacturer's specifications (Qiagen, Denmark). Cell equivalents were based on RNAseP amplification. The following primers were used to target human RNAseP 5′-[…]-3′ (forward) (SEQ ID NO: 5) and 5′-[…]-3′ (reverse) (SEQ ID NO: 6). Amplification reactions were carried out in duplicates with a primer concentration of 0.5 μM, 10 μL SsoFast™ EvaGreen® Supermix and 1 μL 100-fold diluted DNA as template in 20 μl total volume.
Using the RNAsePgenome copy number, sample DNA was diluted to 50,000 cell equivalents per PCR reaction. To determine the frequency of CD4+ T cells carrying HIV DNA, we prepared a standard curve obtained by serially diluted DNA from 8E5 cells (carrying one integrated provirus per genome) combined with DNA from HIV-negative PBMCs (305, 153, 76, 38, 19, 9 HIV DNA copies and 100,000 HIV negative cell equivalents per well). The following primers were used to target HIV-DNA: 5′-[…]-3′ (forward) (SEQ ID NO: 7) and 5′-[…]-3′ (reverse) (SEQ ID NO: 8).
The amplification reaction was carried out in triplicates with a primer concentration of 0.5 μM, 10 μL SsoFast™ EvaGreen® Supermix and 100,000 genomes as template in 20 μl total volume on a Bio-Rad CFX96™ Real-time PCR Platform. PCR conditions were as follows: A denaturation step at 95° C. followed by 45 cycles of 10 seconds at 95° C. and 25 seconds at 62° C. Subsequently a melt curve was obtained heating from 65° C. to 95° C. with a 0.5° C. increment for 5 seconds. Cycle cut off was set at 39 cycles. Amplification products were verified by dissociaton curve. Copy number of HIV DNA per 1×10^6 CD4+ T cells was calculated from the real-time PCR results.
From the HIV DNA standard curve we set a lower limit of quantification of 12 copies HIV DNA/10^6 CD4+ T cells.
Samples were drawn from two patients at Baseline (prior to initiation of panobinostat treatment) and after 4 weeks and 8 weeks cyclic panobinostat treatment 20 mg TIW every other week.

[7] = 20 mg oral; cited from earlier work

O=C(CCCCCCC(=O)Nc1ccccc1)NO [SAHA, suberoylanilide hydroxamic acid]
fold increase in median p24 levels with reference to untreated cultures ([1]; 125 nM): 1.4 fold | fold increase in median p24 levels with reference to untreated cultures ([1]; 250 nM): 2.4 fold | fold increase in median p24 levels with reference to untreated cultures ([1]; 500 nM): 6.9 fold | fold increase in median p24 levels with reference to untreated cultures ([2]; 125 nM): 1.0 fold | fold increase in median p24 levels with reference to untreated cultures ([2]; 250 nM): 1.5 fold | fold increase in median p24 levels with reference to untreated cultures ([2]; 500 nM): 3.1 fold

O=C(/C=C/c1cccc(S(=O)(=O)Nc2ccccc2)c1)NO [PXD101]
fold increase in median p24 levels with reference to untreated cultures ([1]; 125 nM): 5.8 fold | fold increase in median p24 levels with reference to untreated cultures ([1]; 250 nM): 18.3 fold | fold increase in median p24 levels with reference to untreated cultures ([2]; 125 nM): 2.4 fold | fold increase in median p24 levels with reference to untreated cultures ([2]; 250 nM): 7.4 fold

CCCC(CCC)C(=O)O [VPA, valproic acid]
fold increase in median p24 levels with reference to untreated cultures ([1]; 0.25 mM): 2.1 fold | fold increase in median p24 levels with reference to untreated cultures ([1]; 0.5 mM): 7.3 fold | fold increase in median p24 levels with reference to untreated cultures ([2]; 0.25 mM): 1.4 fold | fold increase in median p24 levels with reference to untreated cultures ([2]; 0.5 mM): 2.8 fold | patients in whom depletion of the latent viral reservoir was seen (latent viral reservoir): 3 of 4

CCN(CC)Cc1ccc2cc(COC(=O)Nc3ccc(C(=O)NO)cc3)ccc2c1 [ITF2357]
surface expression of CCR5 (CCR5): decreased surface expression | fold increase in median p24 levels with reference to untreated cultures ([1]; 125 nM): 6.2 fold | fold increase in median p24 levels with reference to untreated cultures ([1]; 250 nM): 18.5 fold | surface expression of CXCR4 (CXCR4): decreased surface expression | fold increase in median p24 levels with reference to untreated cultures ([2]; 125 nM): 3.2 fold | fold increase in median p24 levels with reference to untreated cultures ([2]; 250 nM): 9.2 fold

Cc1[nH]c2ccccc2c1CCNCc1ccc(/C=C/C(=O)NO)cc1 [LBH589, N-Hydroxy-3-[4-[2-(2-methyl-1H-indol-3-yl)ethylaminomethyl]phenyl]-2(E)-propenamide]
average increase of histone H3 acetylation from baseline (histone H3 acetylation; day 4, eight patients, PBMC's, panobinostat 20 mg TIW every other week): 267% | levels of histone acetylation (histone H3 acetylation; off-treatment weeks): dropped to near baseline levels | cytotoxicity (Cytotoxicity of LBH589): No cytotoxicity above background | effect on CD4+ T cell counts in blood (CD4+ T cells): no immune deterioration | rank order of induced HIV-1 expression ([3]; direct comparison at the concentration obtained with clinical use): LBH589>ITF2357 and PXD101>SAHA | rank order of potency when stimulating HIV-1 expression ([3]; latently infected cell lines): LBH589>ITF2357 and PXD101>SAHA>VPA | concentration range in which HIV-1 expression is induced ([3]; latently infected cell lines U1 and ACH2): 8 to 32 nM | concentration at which induction of CD69 expression occurred, compared with other HDACi ([4]; CD4+ T-cells): much lower concentrations of LBH589 than ITF2357, PXD101, and SAHA | proportion of primary T-cells expressing the early activation marker CD69 ([4]; PBMCs from healthy donors, increasing concentrations (2-31 nM), compared to untreated cells): increased | CD69 expression in memory T-cell subsets ([4]; central memory T-cells): highest levels | cell-associated unspliced Gag HIV RNA ([5]; patient A, first off/on cycle analyzed, off treatment): 178 Gag HIV RNA copies | cell-associated unspliced Gag HIV RNA ([5]; patient A, first off/on cycle analyzed, on treatment): 323 Gag HIV RNA copies | cell-associated unspliced Gag HIV RNA ([5]; patient A, second off/on cycle analyzed, off treatment): 57 Gag HIV RNA copies | cell-associated unspliced Gag HIV RNA ([5]; patient A, second off/on cycle analyzed, on treatment): 362 Gag HIV RNA copies | cell-associated unspliced Gag HIV RNA ([5]; patient B, first off/on cycle analyzed, off treatment): 504 Gag HIV RNA copies | cell-associated unspliced Gag HIV RNA ([5]; patient B, first off/on cycle analyzed, on treatment): 841 Gag HIV RNA copies | cell-associated unspliced Gag HIV RNA ([5]; patient B, second off/on cycle analyzed, off treatment): 892 Gag HIV RNA copies | cell-associated unspliced Gag HIV RNA ([5]; patient B, second off/on cycle analyzed, on treatment): 1196 Gag HIV RNA copies | proviral DNA level ([6]; patient A, end of treatment (8 weeks), baseline 46 copies/10^6 CD4+ T cell): remained low | proviral DNA level ([6]; patient A, first two treatment cycles (4 weeks), 20 mg TIW every other week, baseline 46 copies/10^6 CD4+ T cell, lower limit of quantification 12 copies): dropped below detection | proviral DNA level ([6]; patient B, after 4 weeks, baseline 173 copies/10^6 CD4+ T cells): 125 copies/10^6 CD4+ T cell | proviral DNA level ([6]; patient B, end of treatment (8 weeks), baseline 173 copies/10^6 CD4+ T cells, lower limit of quantification 12 copies): undetectable | maximal plasma concentration [7]: approximately 60 nM
